Our source for the TGI values is PubChem BioAssay (NCI).

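All cell lines were grown in 96-well plates and treated with compound for 48 hours. At the TGI there is no net growth.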 Some results are limits rather than exact numbers.

Test systems include SW-620 colon; TK-10 renal; A549 NSCLC; SR leukemia; SK-MEL-28 melanoma; NCI-H460 lung; HOP-92 NSCLC; IGROV1 ovarian; HL-60(TB) leukemia; PC-3 prostate.
What all share (assay): NCI-60 cell line screen, 48 h

Take `CC(=O)O[C@H]1CC[C@]2(C=O)[C@H]3CC[C@]4(C)[C@@H](C5=CC(=O)OC5)CC[C@]4(O)[C@@H]3CC[C@]2(O)C1`: the TGI with SW-620 colon was 4.85 µM; with TK-10 renal, 0.93 µM; in the experiment with A549 NSCLC it was 0.253 µM; in the experiment on SR leukemia, more than 100 µM; with SK-MEL-28 melanoma it was 3.22 µM; in the experiment with NCI-H460 lung it was 0.274 µM. Also, the TGI with HOP-92 NSCLC came out at 2.76 µM; in the experiment with IGROV1 ovarian, 3.99 µM; in the experiment with HL-60(TB) leukemia, 5.18 µM; in the experiment with PC-3 prostate it was 1.38 µM.
With `Cc1nc2cccc(F)c2c(=O)n1-c1nnc(C2CC2)s1`, the TGI in the experiment on SW-620 colon, with TK-10 renal, with A549 NSCLC, in the experiment with SR leukemia, with SK-MEL-28 melanoma and in the experiment with NCI-H460 lung was more than 10 µM throughout. Moreover, the TGI with HOP-92 NSCLC, in the experiment on IGROV1 ovarian, in the experiment on HL-60(TB) leukemia and in the experiment with PC-3 prostate was more than 10 µM in each case.
Consider `CSC(=N/N=C(\C)c1ccc(S(=O)(=O)N(C)c2ccccc2)cc1)SC`, for which the TGI in the experiment on SW-620 colon, in the experiment on TK-10 renal, in the experiment on A549 NSCLC, with SR leukemia, in the experiment on SK-MEL-28 melanoma and in the experiment with NCI-H460 lung was more than 100 µM each time. Further, the TGI in the experiment on HOP-92 NSCLC, with IGROV1 ovarian, in the experiment with HL-60(TB) leukemia and in the experiment with PC-3 prostate was more than 100 µM each time.
In the case of `COc1ccc(C(OCC2OC(n3ccc(Oc4c(F)c(F)c(F)c(F)c4F)nc3=O)CC2OP(OCCC#N)N(C(C)C)C(C)C)(c2ccccc2)c2ccc(OC)cc2)cc1` (stereo not given), the TGI in the experiment with SW-620 colon, with TK-10 renal, in the experiment on A549 NSCLC, in the experiment with SR leukemia, with SK-MEL-28 melanoma and in the experiment on NCI-H460 lung was more than 100 µM in each case. Further, the TGI with HOP-92 NSCLC, in the experiment on IGROV1 ovarian, in the experiment with HL-60(TB) leukemia and in the experiment on PC-3 prostate was more than 100 µM each time.
As for `CN1C(=O)[C@](C)(Cc2ccc(F)cc2)N(C(=O)OC(C)(C)C)[C@@H]1C(C)(C)C`, the TGI in the experiment on SW-620 colon was more than 100 µM; with TK-10 renal it was more than 100 µM; in the experiment on A549 NSCLC it was more than 100 µM; in the experiment with SR leukemia, 43.9 µM; in the experiment on SK-MEL-28 melanoma, more than 100 µM; in the experiment with NCI-H460 lung, more than 100 µM. The TGI is more than 100 µM in the experiment on HOP-92 NSCLC, more than 100 µM in the experiment with IGROV1 ovarian, 26.2 µM in the experiment with HL-60(TB) leukemia and more than 100 µM in the experiment on PC-3 prostate.
Regarding `COC1OC(=O)C(OC)C(OC)C1OC` (stereo not given), the TGI with SW-620 colon, in the experiment with TK-10 renal, in the experiment with A549 NSCLC, in the experiment on SR leukemia, in the experiment on SK-MEL-28 melanoma and in the experiment with NCI-H460 lung was more than 100 µM throughout. In addition, the TGI with HOP-92 NSCLC, in the experiment on IGROV1 ovarian, with HL-60(TB) leukemia and with PC-3 prostate was more than 100 µM in each case.
For the compound `C(=N\Nc1nnc(-c2nnc(N/N=C/c3ccccc3)o2)o1)/c1ccccc1`, the TGI in the experiment on SW-620 colon, with TK-10 renal, with A549 NSCLC, with SR leukemia, in the experiment with SK-MEL-28 melanoma and in the experiment with NCI-H460 lung was more than 10 µM throughout. Besides, the TGI in the experiment on HOP-92 NSCLC, with IGROV1 ovarian, in the experiment with HL-60(TB) leukemia and with PC-3 prostate was more than 10 µM each time.
With `CCOC(=O)CCN1C(=O)c2c(NC(=O)C(=O)O)cccc2S1(=O)=O`, the TGI in the experiment on SW-620 colon, in the experiment with TK-10 renal, in the experiment with A549 NSCLC, in the experiment with SR leukemia, in the experiment on SK-MEL-28 melanoma and with NCI-H460 lung was more than 100 µM throughout. Further, the TGI with HOP-92 NSCLC, in the experiment on IGROV1 ovarian, in the experiment with HL-60(TB) leukemia and in the experiment with PC-3 prostate was more than 100 µM each time.
Consider `Cc1cnc2cc(Cl)ccc2c1SCC(=O)O`, for which the TGI in the experiment with SW-620 colon, in the experiment on TK-10 renal, in the experiment on A549 NSCLC, with SR leukemia, with SK-MEL-28 melanoma and in the experiment with NCI-H460 lung was more than 100 µM throughout. Further, the TGI in the experiment on HOP-92 NSCLC, with IGROV1 ovarian, in the experiment on HL-60(TB) leukemia and in the experiment on PC-3 prostate was more than 100 µM throughout.
Turning to `CCOC(=O)C1=C(C)N(c2ccc(Cl)cc2)C2(O)C=CC(=O)C3C(=O)N(c4ccccc4)C(=O)C132` (stereo not given), the TGI in the experiment on SW-620 colon worked out at 3.68 µM; in the experiment with TK-10 renal it was 3.49 µM; in the experiment on A549 NSCLC, 10.5 µM; with SR leukemia, 1.14 µM; with SK-MEL-28 melanoma, 3.06 µM; with NCI-H460 lung it was 4.97 µM. The TGI in the experiment on HOP-92 NSCLC turned out to be 1.96 µM; in the experiment with IGROV1 ovarian, 3.11 µM; in the experiment on HL-60(TB) leukemia, 6.21 µM; in the experiment on PC-3 prostate, 3.49 µM.
`O=C1CCc2c(sc3ncnc(Nc4cccc(Br)c4)c23)C1`: the TGI was 11.6 µM in the experiment with SW-620 colon; 14.5 µM with TK-10 renal; 24.5 µM in the experiment on A549 NSCLC; 7.82 µM in the experiment on SR leukemia; 52.6 µM in the experiment on SK-MEL-28 melanoma; 12.9 µM with NCI-H460 lung. In addition, the TGI amounted to 9.21 µM in the experiment with HOP-92 NSCLC, 12.6 µM with IGROV1 ovarian, 7.56 µM in the experiment on HL-60(TB) leukemia and 10.3 µM with PC-3 prostate.
In the case of `CC(=O)N1C(=O)/C(=C\C(=O)c2ccc(Cl)cc2)c2ccccc21`, the TGI stood at 61.1 µM in the experiment with SW-620 colon; 30.5 µM in the experiment with TK-10 renal; 22.9 µM in the experiment with A549 NSCLC; 6.51 µM in the experiment with SR leukemia; 35.8 µM in the experiment on SK-MEL-28 melanoma; 32.5 µM in the experiment with NCI-H460 lung. Besides, the TGI in the experiment on HOP-92 NSCLC came to 35 µM; in the experiment on IGROV1 ovarian, 33.2 µM; in the experiment with HL-60(TB) leukemia it was 5.24 µM; with PC-3 prostate, 19.6 µM.
With `N#Cc1nc(-c2ccccn2)c(-c2ccccn2)nc1C#N`, the TGI in the experiment on SW-620 colon was more than 43.5 µM; in the experiment with TK-10 renal it was 17.3 µM; in the experiment with A549 NSCLC, 19.8 µM; with SR leukemia it was more than 33.9 µM; in the experiment with SK-MEL-28 melanoma, 45.6 µM; with NCI-H460 lung, more than 35.1 µM. Moreover, the TGI in the experiment with HOP-92 NSCLC was more than 45.6 µM; in the experiment with IGROV1 ovarian it was 22.2 µM; in the experiment on HL-60(TB) leukemia, more than 29.2 µM; in the experiment on PC-3 prostate, 19.7 µM.
`COc1nc2ncc([C@@H](O)[C@H](O)CO)nc2c(=O)[nH]1`: the TGI in the experiment on SW-620 colon, in the experiment with TK-10 renal, in the experiment with A549 NSCLC, in the experiment with SR leukemia, in the experiment on SK-MEL-28 melanoma and in the experiment on NCI-H460 lung was more than 100 µM in each case. Further, the TGI in the experiment on HOP-92 NSCLC, in the experiment on IGROV1 ovarian, with HL-60(TB) leukemia and with PC-3 prostate was more than 100 µM in each case.
